This experiment concerns the target T1, Or22a (Or22a^1; ab3A-1 neurons) (Drosophila melanogaster, UniProt P81909).
T1 sequence (P81909 1-397): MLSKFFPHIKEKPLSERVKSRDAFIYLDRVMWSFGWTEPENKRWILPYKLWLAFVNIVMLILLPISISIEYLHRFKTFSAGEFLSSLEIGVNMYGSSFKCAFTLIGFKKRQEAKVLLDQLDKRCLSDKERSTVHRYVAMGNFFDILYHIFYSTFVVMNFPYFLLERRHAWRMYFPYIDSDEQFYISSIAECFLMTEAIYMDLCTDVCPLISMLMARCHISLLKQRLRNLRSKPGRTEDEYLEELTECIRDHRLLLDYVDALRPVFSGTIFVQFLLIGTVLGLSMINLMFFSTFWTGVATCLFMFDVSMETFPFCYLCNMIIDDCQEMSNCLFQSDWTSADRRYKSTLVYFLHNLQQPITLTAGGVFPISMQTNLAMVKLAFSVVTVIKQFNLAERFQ
T1 sequence (Q9VNB5 1-486 partner): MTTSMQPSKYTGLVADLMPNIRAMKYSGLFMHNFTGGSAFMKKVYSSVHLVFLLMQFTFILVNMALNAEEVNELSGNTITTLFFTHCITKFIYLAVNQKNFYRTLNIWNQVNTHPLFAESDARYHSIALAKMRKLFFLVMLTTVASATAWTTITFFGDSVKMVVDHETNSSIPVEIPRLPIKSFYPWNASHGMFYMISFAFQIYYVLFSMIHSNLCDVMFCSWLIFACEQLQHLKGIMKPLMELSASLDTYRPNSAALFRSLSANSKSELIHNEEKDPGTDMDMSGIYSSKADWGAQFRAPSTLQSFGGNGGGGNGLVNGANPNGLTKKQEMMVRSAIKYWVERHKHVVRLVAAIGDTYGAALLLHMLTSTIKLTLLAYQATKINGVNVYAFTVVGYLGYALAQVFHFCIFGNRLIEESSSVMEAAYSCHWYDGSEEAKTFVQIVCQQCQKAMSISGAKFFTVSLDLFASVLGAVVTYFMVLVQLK
The experiment is described as follows: single-sensillum recording, transgene in empty ab3A neuron.

With `CCOC(=O)C(C)CC` (centres unmarked) [ethyl 2-methyl butanoate], for the setting “odorant at 10^−2 v/v in paraffin oil”, the spikes/s entry is “flies expressing Or22ab have decreased responses to ethyl hexanoate, methyl hexanoate, and ethyl 2-methyl butanoate”.
On to `CCCCCC(=O)OC` [methyl hexanoate], for which, for the setting “odorant at 10^−4 v/v in paraffin oil”, the spikes/s entry was “flies expressing Or22ab have decreased responses to ethyl hexanoate, methyl hexanoate, and ethyl 2-methyl butanoate”.

These data come from PMC6502086 (Molecular Biology and Evolution, 2019).
